According to publication PMC6469979, “A Dopamine-Responsive Signal Transduction Controls Transcription of Salmonella enterica Serovar Typhimurium Virulence Genes” (mBio, 2019):

Molecular target: EmrR-His6 (EmrR) (Salmonella enterica, UniProt Q7CPY9)
Experiment: EMSA, release of EmrR-His6 from […]-labelled pagC-pagD promoter DNA
Conditions: dopamine 1, 10, 100 uM; 50 pmol EmrR-His6 in 20 ul; room temperature, 30 min; DNA-binding inhibition

EmrR-His6 (EmrR), sequence (Q7CPY9 entry or part of it): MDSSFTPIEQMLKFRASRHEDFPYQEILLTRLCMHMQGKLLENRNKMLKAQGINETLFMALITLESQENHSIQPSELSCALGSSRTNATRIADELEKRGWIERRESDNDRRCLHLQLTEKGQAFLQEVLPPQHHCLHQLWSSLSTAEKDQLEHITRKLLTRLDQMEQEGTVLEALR

In the case of `NCCc1ccc(O)c(O)c1` [dopamine], the “EMSA, release of EmrR-His6 from 32P-labelled pagC-pagD promoter DNA” value is reported as “dopamine alone was sufficient to reduce the affinity of a pure EmrR protein”.
